The results in this text go back to patent publication US7358233B2, “Tetronic acid derivative” (Toudai TLO, Ltd, priority 2001, dated 2008).

The test system of experiment [1] is GRP78. Kind of experiment: Western blotting of GRP78 induction in HT-29 cells under endoplasmic reticulum stress. Format: cell-based. The conditions noted are these: pretreated 30 min, 18 hours. As to the method:
Specifically, […] HT-29 and HT1080 were cultured in RPMI1640 medium and pretreated for 30 min with 3 μM and 30 μM VST. Next, the GRP78 level was detected 18 hours after each endoplasmic reticulum stress treatment by Western blotting (FIG. 10). […] This phenomenon could be elucidated for the first time by the use of VST.
For orientation: A western blot detects proteins with antibodies after separation by electrophoresis.

Experiment [2] concerns HSP70 heat shock protein. Briefly: Transcriptional activity of HSP70 (no data shown). Format: cell-based.
Experiment [3] concerns GRP78. Kind of experiment: Western blotting of endogenous GRP78 induction in HeLa78C6 cells. Format: cell-based, human. As to the method:
HeLa78C6 cells were cultured in DMEM media, 30 min before tunicamycin addition each concentration of VST was added, followed by 2 μg/mL of tunicamycin, and treated for 18 hours. The cells were collected, and the induction of GRP78 was detected by Western blotting using anti-GRP78 antibody (Stressgene). As a result, it was confirmed that VST inhibits not only the reporter assay, but also the induction of endogenous molecular chaperone GRP78 at the protein level in a concentration-dependent manner (FIG. 9A).
Furthermore, HeLa78C6 was cultured by the above-mentioned culturing method and pretreated for 30 min with 50 μM VST. Then, the cells were collected at each time point after the addition of tunicamycin to detect the GRP78 protein level by Western blotting.
Moreover, the GRP78 level 18 hours after the treatment with each of the indicated endoplasmic reticulum stress-inducing agents was detected using a method similar to that used for FIG. 9A.

The subject of experiment [4] is XBP1. Kind of experiment: Formation of spliced XBP1 in HT1080 transfected with Flag-tagged XBP1. In kind it is cell-based. An excerpt:
To elucidate the mechanism of VST to express its activity, the effect of VST on several factors that function in the pathway of endoplasmic reticulum stress response was examined. In particular, Ire1α-XBP1 pathway, a pathway of endoplasmic reticulum stress response and is widely conserved from yeast to mammalian cells, was examined. XBP1 spliced at the mRNA level from a precursor (XBP1 (U)) by Ire1α, that is activated in response to endoplasmic reticulum stress turns into the activated form (XBP1(S)), transfers to the nucleus, and induces transcription of GRP78 by binding to the GRP78 promoter, ERSE.
A plasmid wherein a Flag tag is linked to the cloned XBP1 was transfected into HT1080, and the cell was pretreated for 30 min with VST. 6 hours after imposing each stress, proteasome inhibitor MG132 was added and the cells were cultured for another 6 hours to prepare samples. The full length and spliced XBP1 were detected in the samples using anti-Flag antibody. Examination on the formation of the spliced form XBP1 due to 2-DG treatment is shown in FIG. 16A and that due to tunicamycin treatment is shown in FIG. 16B. Since the spliced form of XBP1 is very rapidly degraded by proteasomes, its detection is difficult. To overcome this problem, proteasome inhibitor MG132 was added. […]

The test system of experiment [5] is HT-29 cells. Kind of experiment: Colony formation of HT-29 cells under endoplasmic reticulum stress conditions. Format: cell-based. The protocol: HT-29 cells were pretreated for 30 min with each concentration of VST, and then subjected to stress treatment with each of the endoplasmic reticulum stresses, i.e., tunicamycin, calcium ionophore A23187, glucose starvation and 2-DG, for 18 hours. Subsequently, the cells were cultured for 1 week […], and then colonies were measured by crystal violet staining.

The test system of experiment [6] is TIG-3. Briefly: Direct growth suppression, MTT method. In kind it is cell-based. To be noted: Homo sapiens, 24 hours, read-out: IC50 of VST. An excerpt: (§1) In this Example, HeLa cells and various other culture cells were used to measure the survival rate during the above-mentioned reporter analysis and VST addition. Specifically, in addition to HeLa cells (human cervical cancer cells), MCF-7 (human breast cancer cells), PC12NH (rat pheochromocytoma), MDA-MB-231 (human breast cancer cells), TIG-3 (human normal fibroblast cells), HeLa 786C cells (human cervical cancer cells), Saos-2 (telomerase and p53-deficient human cancer cells) and SUSM-1 (telomerase-deficient human cancer cells) were used.
(§2) The direct growth suppression activity of VST on these cells was measured using the MTT method. 100 μL cell suspension (5×10^4/mL) of each of the above-mentioned cells was dispensed into each well of a 96-well plate and cultured for 6 hours at 37° C. After culturing, VST solution diluted stepwise as in Example 4 was added thereto and cultured for another 24 hours. After culturing for 24 hours, 0.05 g/mL MTT solution (10 μL) was added to each well and incubation was performed at 37° C. for 4 hours. The medium was then removed, DMSO (100 μL) was added, and the absorbance at 530 nm was measured (FIG. 8).
A general note: Formazan colour is commonly taken as a measure of viable cells.

The subject of experiment [7] is HeLa786C. Briefly: Direct growth suppression, MTT method. In kind it is cell-based. The conditions noted are these: Homo sapiens, 24 hours, read-out: IC50 of VST.
From the text: as §1, §2

Experiment [8] has as its system HeLa cells. Briefly: Direct growth suppression, MTT method. In kind it is cell-based. To be noted: Homo sapiens, 24 hours, read-out: IC50 of VST.
From the text: as §1, §2

Experiment [9] relates to SUSM-1. Briefly: Direct growth suppression, MTT method. To be noted: Homo sapiens, 24 hours, read-out: IC50 of VST. Format: cell-based.
From the text: as §1, §2

For experiment [10], the system named is Saos-2. Briefly: Direct growth suppression, MTT method. To be noted: Homo sapiens, 24 hours, read-out: IC50 of VST. Format: cell-based.
From the text: as §1, §2

For experiment [11], the system named is MDA-MB-231. Briefly: Direct growth suppression, MTT method. In kind it is cell-based. The conditions noted are these: Homo sapiens, 24 hours, read-out: IC50 of VST.
From the text: as §1, §2

The subject of experiment [12] is HT-29 cells. Kind of experiment: Combined use of VST and cisplatin, colony-forming ability of HT-29 cells. Format: cell-based. An excerpt:
Enhancement of endoplasmic reticulum stress response promotes survival of cells under undernutritive conditions, and at the same time allows cells to acquire resistance to antitumor agents. Therefore, the inventors intended to examine the effect of VST on known antitumor agents. […] Therefore, the combined effect with other pharmaceutical agents could not be duly examined. Thus, cisplatin generally used for solid cancer treatment was used to examine the combined effect, due to its activity on cancer cells that is maintained even under low glucose conditions. Specifically, HT-29 cells were cultured by the above-mentioned method, pretreated for 30 min with VST, and then cultured for 18 hours. The cells were then treated for 4 hours with each concentration of cisplatin, and a week later their colony-forming ability was examined.

Experiment [13] has as its system HT1080 cells. Briefly: Apoptosis (sub-G1) of HT1080 cells by propidium iodide FACS analysis. Format: cell-based. To be noted: for sub-G1 stage induction (apoptosis): 3 μM VST. The protocol:
HT1080 cells were pretreated for 30 min with 3 μM of VST, after fixing the cells the nuclei were stained with propidium iodide for FACS analysis. […] In contrast, only a very limited number of HT1080 cells underwent apoptosis with glucose starvation treatment alone.

The structures appear in SMILES notation.

For orientation: IC50 means the concentration needed to halve the response being measured. With `CC/C1=C\C(CO)CC(C)C(OC2CC(O)C(OC3CC(OC)C(OC4CC(O)C(O)C(C)O4)C(C)O3)C(C)O2)C(C)CCCC2(C)C=C(C)C(C)CC23OC(=O)C(=C3O)C(=O)C2(CC)C1C(C)=CC1C(O)CC(=O)C(C)C12` (centres unmarked) [VST, versipelostatin], in experiment [1] (3 μM VST), the “induction of GRP78 by 2-DG” value was “inhibits the induction of GRP78”. Further, the “GRP78 induction due to tunicamycin treatment” value in [1] (30 μM VST) is “did not inhibit GRP78 induction”. Besides, the “influence on the transcriptional activity of HSP70 heat shock protein” value in experiment [2] was “no influence”. Moreover, in experiment [3] (50 μM VST pretreatment 30 min, 12 to 18 hours after tunicamycin 2 μg/mL (FIG. 9B)), the “GRP78 protein level, time course” value was “inhibited”. For the same compound, the “selectivity of the effect among endoplasmic reticulum stresses” value in [3] (18 hours (FIG. 9C)) is “higher selectivity against 2-deoxyglucose”. The “induction of GRP78 by each endoplasmic reticulum stress-inducing agent” value in experiment [3] (18 hours after treatment (FIG. 9C)) was “inhibited the induction of GRP78 against any of the endoplasmic reticulum stresses”. Further, the “induction of endogenous GRP78 at the protein level” value in experiment [3] (each concentration of VST 30 min before tunicamycin 2 μg/mL, 18 hours (FIG. 9A)) was “inhibits”. Moreover, the “formation of spliced XBP1” value was “inhibited” in experiment [4] (2-DG treatment, MG132 added (FIG. 16A)) and “did not inhibit the splicing of XBP1” in experiment [4] (tunicamycin treatment, MG132 added (FIG. 16B)). In addition, the “cell growth suppression (colony formation)” value in [5] (2-DG treatment 18 hours, 1 week culture (FIG. 11D)) is “strong cell growth suppression effect”; in experiment [5] (glucose starvation 18 hours, 1 week culture (FIG. 11C)) it was “strong cell growth suppression effect”; in experiment [5] (tunicamycin treatment 18 hours, 1 week culture (FIG. 11A)), “did not show suppression on cell growth”. The IC50 in [6] was above 100 µM; in experiment [7], 52.9 µM; in experiment [8], above 100 µM; in experiment [9] it was above 100 µM; in experiment [10] it was above 100 µM; in [11] it was above 100 µM. The “effect of the combined use of VST with cisplatin on colony-forming ability” value in [12] (VST 300 nM and 500 nM, then cisplatin 4 hours (FIG. 14)) was “further enhance the effect of cisplatin”. Moreover, the “activity on colony-forming ability under glucose starvation condition” value in experiment [12] (glucose starvation condition) is listed as “enhance the activity”. In addition, the “sub-G1 stage induction (apoptosis)” value in experiment [13] (glucose starvation condition, after 48 hours) was “strong sub-G1 stage induction”; in [13] (in the presence of glucose) it was “did not show any effect”. In addition, the “induction of apoptosis, sequential changes” value in experiment [13] (glucose starvation conditions (FIG. 13)) is given as “time-dependent manner”.
